Results taken from PMC10439952, “JT002, a small molecule inhibitor of the NLRP3 inflammasome for the treatment of autoinflammatory disorders” (Scientific Reports, 2023).
Like-named read-outs stand apart in the source and are kept apart here.

Legend:
[1] = tested on: TNFα production; assay: TNFα production in human PBMCs stimulated by LPS + ATP; type: cell-based; settings: Human PBMC
Procedure: Inflammasome activation and whole blood assays were essentially carried out as described earlier. Details can be found in the supplementary information section accompanying this publication. A protocol for blood draws from healthy volunteers and use of the blood in preclinical assays was approved by Western Institutional Review Board, Inc (Puyallup, WA, USA). Informed consent was obtained from each donor prior to the first blood draw.
(§1) Cell viability was determined by addition of an equal volume of CellTiter-Glo® 2.0 reagent (Promega) to the remaining cells/supernatant in each well. Intracellular Caspase-1 activity was measured using the Caspase-Glo® assay (Promega) according to the manufacturer’s instructions. The biochemical capsase-1 assay was conducted at Reaction Biology Corporation (Malvern, USA). Human IL-1β, IL-1α, and TNFα and mouse IL-1β were measured in cell culture supernatants using homogeneous time resolved fluorescence assay kits (HTRF, Cisbio, Codolet, France). Human IL-18 was measured in cell culture supernatants using an ELISA kit (R&D Systems, Minneapolis, MN, USA). Plasma IL-1β concentrations were determined by Quantikine® ELISA (R&D Systems, Minneapolis, MN).
(§2) 4H). MS: m/z 433.1 (M+H+). […]

[2] = tested on: NLRP1 inflammasome; assay: IL-1β production in Nlrp3-/- mouse BMDMs after NLRP1 activation (LPS + L18-MDP); type: cell-based; settings: mBMDMs, concentrations up to 10 µM
[3] = biological target: T1, AIM2 inflammasome (Mus musculus, UniProt Q91VJ1); assay: IL-1β production in mouse BMDMs after AIM2 activation (LPS + poly(dA:dT)); type: cell-based; settings: mBMDMs, concentrations up to 10 µM
T1 construct: host or cells: mouse BMDMs, LPS + transfected poly(dA:dT)
T1 sequence (Q91VJ1 1-354): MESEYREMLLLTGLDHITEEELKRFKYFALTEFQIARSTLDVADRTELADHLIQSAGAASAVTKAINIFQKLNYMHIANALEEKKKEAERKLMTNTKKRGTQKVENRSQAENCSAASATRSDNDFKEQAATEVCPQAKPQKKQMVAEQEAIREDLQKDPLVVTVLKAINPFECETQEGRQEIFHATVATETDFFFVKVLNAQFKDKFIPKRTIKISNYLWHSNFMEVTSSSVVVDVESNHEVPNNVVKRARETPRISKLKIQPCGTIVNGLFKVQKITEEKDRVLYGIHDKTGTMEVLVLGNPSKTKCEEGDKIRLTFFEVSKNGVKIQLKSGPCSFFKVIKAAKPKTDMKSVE
Procedure: as §1, §2
flagellin, prepared in Opt iMEM and combined with Lipofectamine 2000. […] After priming Nlrp3 -/- mBMDMs with 100 ng/mL of LPS for 3- 5 h, cells were exposed to 100 ng/mL L18- MDP and incubated overnight.At the end of the incubation period of the assays above, plates were briefly centri fuged and hal f of the cell culture supern atant remo ved and either analysed i mmediately or stored at - 80°C for subs equent cytokine […]

[4] = Pharmacokinetics in male Beagle dogs after i.v. and p.o. administration; type: in vivo; settings: plasma, Dog
Procedure: The pharmacokinetics (PK) of JT002 were assessed in male Sprague–Dawley rats and male Beagle dogs after intravenous (i.v.) and oral (p.o.) administration (Table 2). […] In dogs, a maximum drug plasma concentration (Cmax) of 4.0 µg/mL (9 µM) was reached 1 h after a single 1 mg oral dose. Dose-adjusted exposures (dose-adjusted AUC) from oral administration were close to identical between rat and dog (11.8 versus 11.6) (Table 2).

For CO[C@@H]1COc2c(S(=O)(=O)NC(=O)Nc3c4c(cc5c3CCC5)CCC4)cnn2C1 [JT002], the “effect on TNFα production” value ([1]; JT002 concentrations up to 1 µM) was “no effect”, the IC50 ([1]; read-out: Geo Av IC50, TNFα) was greater than 1000 nM and the “inhibition of IL-1β production after NLRP1 activation” value [2] was “no inhibition of IL-1β production”. For the same compound, the “inhibition of IL-1β production after AIM2 activation” value [3] was “no inhibition of IL-1β production”, the Cmax ([4]; single 1 mg oral dose, read-out: maximum drug plasma concentration (Cmax)) was 9 µM and the AUC ([4]; iv, 1 mg/kg) was 10600 ng·h/mL. It also gave a half-life ([4]; iv, 1 mg/kg) of 1.1 h, a clearance ([4]; iv, i.v., 1 mg/kg, read-out: Clpl (plasma clearance)) of 1.8 mL/min/kg and a Cmax ([4]; iv, i.v., 1 mg/kg, read-out: Cmax) of 7000 ng/mL. For the same compound, the Vd ([4]; iv, i.v., 1 mg/kg, read-out: Vss) was 0.2 L/kg, the AUC ([4]; po, 1 mg/kg) was 11600 ng·h/mL and the half-life ([4]; po, 1 mg/kg) was 1.4 h. The Tmax ([4]; po, 1 mg/kg, median) was 1 h, the Cmax ([4]; po, p.o., 1 mg/kg, read-out: Cmax) was 4000 ng/mL and the bioavailability ([4]; po, p.o., 1 mg/kg, sodium salt form, read-out: %F (oral bioavailability)) was 100%.
